Tests used:
[1] = test system: total ERK, total Akt, or total RalA; assay: total ERK, total Akt, total RalA, Western immunoblotting; type: cell-based, human; details: NF-1 cell lines
Description: (§1) Unless otherwise indicated, cells were lysed 48 hours after being treated with lysis buffer, as described in Haklai, et al., supra. […] Protein bands were visualized by ECL and quantified by densitometry with Image Master VDS-CL (Amersham) using TINA 2.0 software (Ray Tests). To obtain reliable comparisons between replicated experiments for statistical analysis, a standardization procedure was used, in which the density of each given protein band as recorded with its specific Ab, was normalized. […] The standard average density was defined as 1.0, and each of the individually determined bands was related to this value. […] Actin cytoskeletal elements were labeled with rhodamine-phalloidin, and digital fluorescence images were collected on a Zeiss LSM 510 confocal microscope fitted with fluorescein and rhodamine filters, as described in Gana-Weisz, M., et al., supra.
(§2) Next, to determine whether down-regulation of active Ras by FTS was accompanied by inhibition of Ras signaling, the effect of FTS on steady-state levels of phospho-ERK, phospho-Akt, and RalA-GTP as read-outs of the three prominent Ras pathways, Ras/Raf/MEK/ERK, Ras/PI3K/Akt, and Ras/RalGEF/RalA, respectively, was examined. […]

Ras-GTP = assay: serum-stimulated GTP loading of Ras, kinetic study; type: cell-based, human
Description: Unless otherwise indicated, cells were lysed 48 hours after being treated with lysis buffer, as described in Haklai, et al., supra. Lysates containing 50-100 μg protein were subjected to SDS-PAGE followed by Western immunoblotting, as described in Haklai, et al., supra.; Elad-Sfadia, G., Haklai, R., Ballan, E., Gabius, H. J., Kloog, Y., J. Biol. Chem. 277:37169-75 (2002); Paz, A., Haklai, R., Elad, G., Ballab, E., Kloog, Y., Oncogene 20:7486-93 (2000), with one of the following antibodies: 1:2000 pan-Ras Ab-3; 1:10,000 anti-phospho-ERK Ab; 1:2000 anti-ERK Ab; 1:1000 anti-Akt Ab; 1:2000 anti-phospho-Akt Ab; 1:500 antitubulin Ab; 1:5000 anti-RalA Ab; 1:1000 anti-p120 RasGAP Ab; or 1:200 anti-neurofibromin Ab. The immunoblots were then exposed either to 1:7500 peroxidase goat anti-mouse IgG or to 1:2000 peroxidase goat anti-rabbit IgG. Protein bands were visualized by ECL and quantified by densitometry with Image Master VDS-CL (Amersham) using TINA 2.0 software (Ray Tests). To obtain reliable comparisons between replicated experiments for statistical analysis, a standardization procedure was used, in which the density of each given protein band as recorded with its specific Ab, was normalized. Normalization was achieved by collecting and averaging all the data obtained for a given band (for example, for the Ras-GTP band) in a set of experiments, irrespective of cell type or treatment. The standard average density was defined as 1.0, and each of the individually determined bands was related to this value. Accordingly, the normalized value of a single band would be 1.0 if it was equal to the standard value, or would range between values above and below 1.0 (respectively representing values higher and lower than the standard). The normalized values thus obtained were used to calculate means±SD and, to determine, using Student's t-test, the statistical significance of differences between populations. Lysates containing 500 μg protein were used to determine Ras-GTP by the GST-RBD pull-down assay, and this was followed by Western immunoblotting with pan anti-Ras Ab as described in Elad-Sfadia, G., et al., supra. Lysates containing 500 μg protein were used to determine RalA-GTP by the GST-RalBD pulldown assay, followed by Western immunoblotting with anti-RalA Ab [Wolthuis, R. M., Zwartkruis, F., Moen, T. C., Bos, J. L. Ral. Curr. Biol. 8:471-4 (1998)]. Actin cytoskeletal elements were labeled with rhodamine-phalloidin, and digital fluorescence images were collected on a Zeiss LSM 510 confocal microscope fitted with fluorescein and rhodamine filters, as described in Gana-Weisz, M., et al., supra.
(§3) First, the time courses of serum-stimulated GTP loading of Ras and serum-stimulated activation of signals downstream of Ras were determined. […]

phospho-Akt = assay: serum-stimulated phospho-Akt, kinetic study; type: cell-based, human
Description: as §1, §3

[2] = human, doses up to 1800 mg/day; cited from earlier work
phospho-ERK = assay: steady-state phospho-ERK, Western immunoblotting; type: cell-based, human
Description: as §1, §2

[3] = all NF-1 cell lines (T265P21, ST88-14, 90-8)

SMILES: CC(C)=CCC/C(C)=C/CC/C(C)=C/CSc1ccccc1C(=O)O [FTS, S-farnesylthiosalicylic acid]
- amounts of total ERK, total Akt, or total RalA [1]: did not affect
- duration of the Ras signal in the presence of FTS (Ras-GTP; NF-1 cells, serum stimulation): 5 to 10 min
- serum-stimulated increase in Ras-GTP (Ras-GTP; STS26T cells, 20 μM FTS, serum-starved 24 hours, stimulated with 10% serum): strongly inhibited
- duration of the serum-stimulated signals (Ras-GTP, phospho-ERK, phospho-Akt) (Ras-GTP; all NF-1 cell lines): shortened the duration of the signals
- serum-stimulated increase in Ras-GTP (Ras-GTP; [3]): reduced
- serum-stimulated increase in phospho-Akt (phospho-Akt; STS26T cells, serum-starved 24 hours, stimulated with 10% serum): inhibited
- serum-stimulated increase in phospho-Akt (phospho-Akt; [3]): reduced
- dose-limiting toxicities [2]: no dose-limiting toxicities
- steady-state phospho-ERK (phospho-ERK; all NF-1 cell lines): significant reduction
- increase in phospho-ERK (phospho-ERK; non-NF-1 STS26T cells, steady state): 10%-20%
